According to patent publication US20170190671A1, “BIS(ARYL)CATECHOL DERIVATIVES AS HERBICIDES” (E I DU PONT DE NEMOURS AND COMPANY, priority 2014, published 2017):

What was measured:
Type in all cases: in vivo
[1] = tested on: soybean (Glycine max); assay: Test C postemergence; conditions: Glycine max, post-emergence, Postemergence, scale 0 to 100, read-out: Plant response rating, Soybean
Method in brief: (§1)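 Greenhouse test, preemergence on seeded soil or postemergence on 1- to 4-leaf plants. Response is a visual 0-100 rating versus controls, taken 13-15 days after treatment.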

[2] = tested on: lambsquarters (Chenopodium album); assay: Test C postemergence; conditions: Chenopodium album, post-emergence, 336 h, Postemergence, scale 0 to 100, read-out: Plant response rating, Lambsquarters
Method in brief: as §1

[3] = tested on: waterhemp (common waterhemp, Amaranthus rudis); assay: Test C postemergence; conditions: Amaranthus tuberculatus, post-emergence, Postemergence, scale 0 to 100, read-out: Plant response rating, Waterhemp
Method in brief: as §1

[4] = tested on: galium (catchweed bedstraw, Galium aparine); assay: Test C postemergence; conditions: Galium, post-emergence, 336 h, Postemergence, scale 0 to 100, read-out: Plant response rating, Galium
Method in brief: as §1

[5] = tested on: corn (Zea mays); assay: Test C postemergence; conditions: Zea mays, post-emergence, 336 h, Postemergence, scale 0 to 100
Method in brief: as §1

[6] = tested on: ragweed (common ragweed, Ambrosia elatior); assay: Test C postemergence; conditions: Ambrosia artemisiifolia, post-emergence, 336 h, Postemergence, scale 0 to 100, read-out: Plant response rating, Ragweed
Method in brief: as §1

[7] = tested on: soybean (Glycine max); assay: Test C preemergence; conditions: Glycine max, pre-emergence, scale 0 to 100, read-out: Plant response rating, Soybean
Method in brief: as §1

[8] = tested on: johnsongrass (Sorghum halepense); assay: Test C preemergence; conditions: Sorghum halepense, pre-emergence, 336 h, scale 0 to 100, read-out: Plant response rating, Johnsongrass
Method in brief: as §1

[9] = tested on: yellow nutsedge (Cyperus esculentus); assay: Test C preemergence; conditions: Cyperus, pre-emergence, 336 h, scale 0 to 100, read-out: Plant response rating, Nutsedge, Yellow
Method in brief: as §1

[10] = tested on: blackgrass (Alopecurus myosuroides); assay: Test C preemergence; conditions: Alopecurus myosuroides, pre-emergence, 336 h, scale 0 to 100, read-out: Plant response rating, Blackgrass
Method in brief: as §1

[11] = tested on: large (Lg) crabgrass (Digitaria sanguinalis); assay: Test C preemergence; conditions: Digitaria sanguinalis, pre-emergence, 336 h, scale 0 to 100, read-out: Plant response rating, Crabgrass, Large
Method in brief: as §1

[12] = tested on: barnyardgrass (Echinochloa crus-galli); assay: Test C preemergence; conditions: Echinochloa crus-galli, pre-emergence, read-out: Plant response rating, Barnyardgrass
Method in brief: as §1

[13] = tested on: velvetleaf (Abutilon theophrasti); assay: Test C preemergence; conditions: Abutilon theophrasti, pre-emergence, scale 0 to 100, read-out: Plant response rating, Velvetleaf
Method in brief: as §1

[14] = tested on: lambsquarters (Chenopodium album); assay: Test C preemergence; conditions: Chenopodium album, pre-emergence, 336 h, scale 0 to 100, read-out: Plant response rating, Lambsquarters
Method in brief: as §1

[15] = tested on: waterhemp (common waterhemp, Amaranthus rudis); assay: Test C preemergence; conditions: Amaranthus tuberculatus, pre-emergence, scale 0 to 100, read-out: Plant response rating, Waterhemp
Method in brief: as §1

[16] = tested on: oilseed rape (Brassica napus); assay: Test C preemergence; conditions: Brassica napus, pre-emergence, scale 0 to 100, read-out: Plant response rating, Oilseed Rape
Method in brief: as §1

[17] = tested on: winter wheat (Triticum aestivum); assay: Test C preemergence; conditions: Triticum aestivum, pre-emergence, 336 h, scale 0 to 100, read-out: Plant response rating, Wheat
Method in brief: as §1

[18] = tested on: pigweed (Amaranthus retroflexus); assay: Test C preemergence; conditions: Amaranthus retroflexus, pre-emergence, 336 h, scale 0 to 100, read-out: Plant response rating, Pigweed
Method in brief: as §1

[19] = tested on: Italian ryegrass (Lolium multiflorum); assay: Test C preemergence; conditions: Lolium multiflorum, pre-emergence, 336 h, scale 0 to 100, read-out: Plant response rating, Ryegrass, Italian
Method in brief: as §1

[20] = tested on: morningglory (Ipomoea coccinea); assay: Test C preemergence; conditions: Ipomoea, pre-emergence, 336 h, scale 0 to 100, read-out: Plant response rating, Morningglory
Method in brief: as §1

[21] = tested on: corn (Zea mays); assay: Test C preemergence; conditions: Zea mays, pre-emergence, 336 h, scale 0 to 100
Method in brief: as §1

[22] = tested on: giant foxtail (Setaria faberii); assay: Test C preemergence; conditions: Setaria faberi, pre-emergence, 336 h, scale 0 to 100, read-out: Plant response rating, Foxtail, Giant
Method in brief: as §1

## N#Cc1cccc(Oc2ncc(Cl)cn2)c1Oc1ncc(Br)cn1 [Compound 4, 2-[(5-bromo-2-pyrimidinyl)oxy]-3-[(5-chloro-2-pyrimidinyl)oxy]benzonitrile]
[1]; 31 g ai/ha
  plant injury at 31 g/ha: 70%
[1]; 62 g ai/ha
  plant injury at 62 g/ha: 70%
[1]; 125 g ai/ha
  plant injury at 125 g/ha: 70%
[2]; 16 g ai/ha
  pest or weed control at 16 g/ha: 30%
[2]; 31 g ai/ha
  pest or weed control at 31 g/ha: 70%
[2]; 62 g ai/ha
  pest or weed control at 62 g/ha: 80%
[2]; 125 g ai/ha
  pest or weed control at 125 g/ha: 90%
[3]; 31 g ai/ha
  pest or weed control at 31 g/ha: 55%
[3]; 62 g ai/ha
  pest or weed control at 62 g/ha: 75%
[3]; 125 g ai/ha
  pest or weed control at 125 g/ha: 70%
[4]; 16 g ai/ha
  pest or weed control at 16 g/ha: 55%
[4]; 31 g ai/ha
  pest or weed control at 31 g/ha: 55%
[4]; 62 g ai/ha
  pest or weed control at 62 g/ha: 60%
[4]; 125 g ai/ha
  pest or weed control at 125 g/ha: 95%
[5]; 16 g ai/ha
  Corn plant response rating (crop injury, 0 = no effect, 100 = complete kill) at 16 g/ha: 5%
[5]; 31 g ai/ha
  Corn plant response rating (crop injury, 0 = no effect, 100 = complete kill) at 31 g/ha: 5%
[5]; 62 g ai/ha
  Corn plant response rating (crop injury, 0 = no effect, 100 = complete kill) at 62 g/ha: 5%
[5]; 125 g ai/ha
  Corn plant response rating (crop injury, 0 = no effect, 100 = complete kill) at 125 g/ha: 10%
[6]; 31 g ai/ha
  pest or weed control at 31 g/ha: 50%
[6]; 62 g ai/ha
  pest or weed control at 62 g/ha: 75%
[6]; 125 g ai/ha
  pest or weed control at 125 g/ha: 85%
[7]; 31 g ai/ha, preemergence
  plant injury at 31 g/ha: 30%
[7]; 62 g ai/ha, preemergence
  plant injury at 62 g/ha: 50%
[7]; 125 g ai/ha, preemergence
  plant injury at 125 g/ha: 95%
[7]; Preemergence, 16 g ai/ha
  plant injury at 16 g/ha: 5%
[8]; 31 g ai/ha, preemergence
  pest or weed control at 31 g/ha: 15%
[8]; 62 g ai/ha, preemergence
  pest or weed control at 62 g/ha: 80%
[8]; 125 g ai/ha, preemergence
  pest or weed control at 125 g/ha: 98%
[8]; Preemergence, 16 g ai/ha
  pest or weed control at 16 g/ha: 0%
[9]; 31 g ai/ha, preemergence
  pest or weed control at 31 g/ha: 0%
[9]; 62 g ai/ha, preemergence
  pest or weed control at 62 g/ha: 30%
[9]; 125 g ai/ha, preemergence
  pest or weed control at 125 g/ha: 55%
[9]; Preemergence, 16 g ai/ha
  pest or weed control at 16 g/ha: 0%
[10]; 31 g ai/ha, preemergence
  pest or weed control at 31 g/ha: 30%
[10]; 62 g ai/ha, preemergence
  pest or weed control at 62 g/ha: 95%
[10]; 125 g ai/ha, preemergence
  pest or weed control at 125 g/ha: 95%
[10]; Preemergence, 16 g ai/ha
  pest or weed control at 16 g/ha: 0%
[11]; 31 g ai/ha, preemergence
  pest or weed control at 31 g/ha: 100%
[11]; 62 g ai/ha, preemergence
  pest or weed control at 62 g/ha: 100%
[11]; 125 g ai/ha, preemergence
  pest or weed control at 125 g/ha: 100%
[11]; Preemergence, 16 g ai/ha
  pest or weed control at 16 g/ha: 75%
[12]; 31 g ai/ha, preemergence, scale 0 to 100
  pest or weed control at 31 g/ha: 60%
[12]; 62 g ai/ha, preemergence, scale 0 to 100
  pest or weed control at 62 g/ha: 85%
[12]; 125 g ai/ha, preemergence, scale 0 to 100
  pest or weed control at 125 g/ha: 100%
[12]; Preemergence, 16 g ai/ha, scale 0 to 100 (0 no effect, 100 complete control)
  pest or weed control at 16 g/ha: 20%
[13]; 31 g ai/ha, preemergence
  pest or weed control at 31 g/ha: 45%
[13]; 62 g ai/ha, preemergence
  pest or weed control at 62 g/ha: 55%
[13]; 125 g ai/ha, preemergence
  pest or weed control at 125 g/ha: 100%
[13]; Preemergence, 16 g ai/ha
  pest or weed control at 16 g/ha: 5%
[14]; 31 g ai/ha, preemergence
  pest or weed control at 31 g/ha: 95%
[14]; 62 g ai/ha, preemergence
  pest or weed control at 62 g/ha: 85%
[14]; 125 g ai/ha, preemergence
  pest or weed control at 125 g/ha: 100%
[14]; Preemergence, 16 g ai/ha
  pest or weed control at 16 g/ha: 75%
[15]; 31 g ai/ha, preemergence
  pest or weed control at 31 g/ha: 100%
[15]; 62 g ai/ha, preemergence
  pest or weed control at 62 g/ha: 100%
[15]; 125 g ai/ha, preemergence
  pest or weed control at 125 g/ha: 100%
[15]; Preemergence, 16 g ai/ha
  pest or weed control at 16 g/ha: 45%
[16]; 31 g ai/ha, preemergence
  plant injury at 31 g/ha: 75%
[16]; 62 g ai/ha, preemergence
  plant injury at 62 g/ha: 90%
[16]; 125 g ai/ha, preemergence
  plant injury at 125 g/ha: 100%
[16]; Preemergence, 16 g ai/ha
  plant injury at 16 g/ha: 15%
[17]; 31 g ai/ha, preemergence
  plant injury at 31 g/ha: 0%
[17]; 62 g ai/ha, preemergence
  plant injury at 62 g/ha: 0%
[17]; 125 g ai/ha, preemergence
  plant injury at 125 g/ha: 5%
[17]; Preemergence, 16 g ai/ha
  plant injury at 16 g/ha: 0%
[18]; 31 g ai/ha, preemergence
  pest or weed control at 31 g/ha: 100%
[18]; 62 g ai/ha, preemergence
  pest or weed control at 62 g/ha: 70%
[18]; 125 g ai/ha, preemergence
  pest or weed control at 125 g/ha: 100%
[18]; Preemergence, 16 g ai/ha
  pest or weed control at 16 g/ha: 5%
[19]; 31 g ai/ha, preemergence
  pest or weed control at 31 g/ha: 5%
[19]; 62 g ai/ha, preemergence
  pest or weed control at 62 g/ha: 45%
[19]; 125 g ai/ha, preemergence
  pest or weed control at 125 g/ha: 70%
[19]; Preemergence, 16 g ai/ha
  pest or weed control at 16 g/ha: 0%
[20]; 31 g ai/ha, preemergence
  pest or weed control at 31 g/ha: 35%
[20]; 62 g ai/ha, preemergence
  pest or weed control at 62 g/ha: 55%
[20]; 125 g ai/ha, preemergence
  pest or weed control at 125 g/ha: 98%
[20]; Preemergence, 16 g ai/ha
  pest or weed control at 16 g/ha: 5%
[21]; 31 g ai/ha, preemergence
  Corn plant response rating (crop injury, 0 = no effect, 100 = complete kill) at 31 g/ha: 5%
[21]; 62 g ai/ha, preemergence
  Corn plant response rating (crop injury, 0 = no effect, 100 = complete kill) at 62 g/ha: 10%
[21]; 125 g ai/ha, preemergence
  Corn plant response rating (crop injury, 0 = no effect, 100 = complete kill) at 125 g/ha: 35%
[21]; Preemergence, 16 g ai/ha
  Corn plant response rating (crop injury, 0 = no effect, 100 = complete kill) at 16 g/ha: 0%
[22]; 31 g ai/ha, preemergence
  pest or weed control at 31 g/ha: 98%
[22]; 62 g ai/ha, preemergence
  pest or weed control at 62 g/ha: 100%
[22]; 125 g ai/ha, preemergence
  pest or weed control at 125 g/ha: 100%
[22]; Preemergence, 16 g ai/ha
  pest or weed control at 16 g/ha: 10%
